Where two headings read alike, the source gives them in different places.
Assays:
[1] = test system: TEL-PDGFRβ-BaF3; test: Cell proliferation (CCK-8, 72 h), TEL-PDGFRβ-BaF3; format: cell-based; conditions: Mus musculus, BaF3 expressing PDGFRβ kinase
Excerpt: (§1) In this example, human gastrointestinal stromal tumor cell line GIST-T1 (expressing wild-type C-KIT gene) (purchased from Cosmo Bio Co., Ltd. (Japan)), human gastrointestinal stromal tumor cell line GIST-T1-T670I (expressing C-KIT-T670I mutant gene) (constructed by our laboratory with CRISPR technology), mouse […] BaF3 (purchased from ATCC) were used. In addition, in this Example, mouse Tel-cKit-BaF3 (stably expressing C-KIT wild-type kinase), mouse Tel-cKit/T670I-BaF3 (stably expressing cKIT T670I mutant kinase), mouse Tel-PDGFRα-BaF3 (stably expressing PDGFRα kinase), mouse Tel-PDGFRβ-BaF3 (stably expressing PDGFRβ kinase), mouse Tel-VEGFR2-BaF3 (stably expressing VEGFR2 kinase), mouse Tel-FLT3-BaF3 (stably expressing FLT3 kinase) were also used. The above cell lines were all constructed by our laboratory. The construction method was as follows: the human C-KIT, C-KIT T670I, PDGFRα, PDGFRβ, VEGFR2, FLT3 kinase region sequences were amplified by PCR respectively and inserted into MSCV-Puro vector (purchased from Clontech) with N-terminal TEL fragment and/or NPM fragment and/or TPR fragment respectively, which was stably transferred into mouse BaF3 cells by retroviral method, and IL-3 growth factor was removed, and finally the cell lines in which protein was transferred depending on C-KIT, C-KIT/T670I, PDGFRα, PDGFRβ, VEGFR2, FLT3 were obtained. The GIST-T1-T670I (expressing C-KIT-T670I mutant gene) cell line was constructed by our laboratory. The construction method was as follows: the sgRNA targeting near the T670 site of the KIT gene was designed by the CRISPR design tool of the Zhang Feng Laboratory of the Massachusetts Institute of Technology (URL: crispr.mit.edu) and cloned into pSpCas9(BB)-2A-Puro vector (Addgene, USA); the obtained vector and a single-stranded oligonucleotide with T670I mutation near the T670 site were co-transfected into the cells, and after antibiotic selection, they were diluted and cultured in a single cell in a 96-well plate; the T670 site of the cells was sequenced and verified by the Sanger sequencing method.

[2] = test system: TEL-PDGFRα-BaF3; test: Cell proliferation (CCK-8, 72 h), TEL-PDGFRα-BaF3; format: cell-based; conditions: Mus musculus, BaF3 expressing PDGFRα kinase
Excerpt: as §1

[3] = test system: TEL-cKIT/T670I-BaF3; test: Cell proliferation (CCK-8, 72 h), TEL-cKIT/T670I-BaF3; format: cell-based; conditions: Mus musculus, read-out: GI50 TEL-cKIT/T670I-BaF3
Excerpt: as §1

[4] = test system: TEL-VEGFR2-BaF3; test: Cell proliferation (CCK-8, 72 h), TEL-VEGFR2-BaF3; format: cell-based; conditions: Mus musculus, BaF3 expressing VEGFR2 kinase
Excerpt: as §1

[5] = test system: BaF3; test: Cell proliferation (CCK-8, 72 h), parental BaF3; format: cell-based; conditions: Mus musculus, parental BaF3 cells
Excerpt: as §1

[6] = test system: TEL-cKIT-BaF3; test: Cell proliferation (CCK-8, 72 h), TEL-cKIT-BaF3; format: cell-based; conditions: Mus musculus, BaF3 expressing wild-type C-KIT kinase
Excerpt: as §1

[7] = test system: TEL-FLT3-BaF3; test: Cell proliferation (CCK-8, 72 h), TEL-FLT3-BaF3; format: cell-based; conditions: Mus musculus, BaF3 expressing FLT3 kinase
Excerpt: as §1

[8] = test system: GIST-T1; test: Cell proliferation (CCK-8, 72 h), GIST-T1; format: cell-based; conditions: Homo sapiens, GISTT1, GIST-T1 (wild-type C-KIT gene)
Excerpt: as §1

[9] = test system: GIST-T1-T670I; test: Cell proliferation (CCK-8, 72 h), GIST-T1-T670I; format: cell-based; conditions: Homo sapiens, GIST-T1-T670I (C-KIT-T670I mutant, Imatinib-resistant)
Excerpt: as §1

[10] = test system: TEL-cKIT/T670I-BaF3; test: TEL-cKIT/T670I-BaF3 cell tumor transplantation mouse model; format: in vivo
Description: (§2) (1) 4-6 weeks old Bal b/c female mice were purchased from Beijing Weitong Lihua Experimental Animal Co., Ltd. and were reared in SPF-level laboratories. Drinking water and litter were sterilized by autoclaving. All operations on mice were performed under sterile conditions.
(§3) (2) On day 0, about 5×10^6 TEL-cKIT/T670I-BaF3 or 5×10^6 GIST-T1-T670I cells were injected subcutaneously on the left back of all mice, respectively.
(§4) (3) For the mouse model of TEL-cKIT/T670I-BaF3, starting from day 6, the corresponding mice were orally administered every day methyl cellulose (HKI) vehicle (5 mice); […]; sunitinib (purchased from MedChemExpress, China) at a dose of 40 mg/kg mouse weight (5 mice). For the mouse model of GIST-T1-T670I, starting from day 15, the corresponding mice were orally administered every day methyl cellulose (HKI) vehicle (5 mice); Compound 9 at a dose of 20 mg/kg, 30 mg/kg, 40 mg/kg (5 mice each); sunitinib at a dose of 40 mg/kg mouse weight (5 mice).
(§5) (4) Starting from day 6 (the mouse model of TEL-cKIT/T670I-BaF3) and day 15 (the mouse model of GIST-T1-T670I), the length/width of the subcutaneous tumors was measured with a vernier caliper every day, the body weight of the mice was recorded every day, and the effect of compound 9 on the body weight of the mice was determined respectively.
(§6) (5) The growth trend of […] tumors was calculated, with the calculation method of tumor volume: length×width×width/2 mm^3.

[11] = test system: GIST-T1-T670I; test: GIST-T1-T670I cell tumor transplantation mouse model; format: in vivo; conditions: for tumor inhibition rate: 40 mg/kg oral daily
Description: as §2, §3, §4, §5, §6

[12] = BaF3 expressing cKIT T670I mutant kinase, 72 h, CCK-8

Structure (SMILES)	GI50 [1] [nM]	GI50 [2] [nM]	GI50 [3, 12] [nM]	GI50 [4] [nM]	GI50 [5] [nM]	GI50 [6] [nM]	GI50 [7] [nM]	GI50 [8] [nM]	GI50 [9] [nM]	tumor inhibition rate ([10]; 40 mg/kg oral daily, with increasing days of treatment) [%]	tumor inhibition rate ([10]; 100 mg/kg oral daily, day 11 after administration) [%]	effect on the body weight of mice ([10]; oral daily)	GI50 ([3]; BaF3, 72 h) [nM]	tumor inhibition rate ([11]; day 28 after administration) [%]	tumor inhibition rate ([11]; with increasing days of treatment) [%]	effect on the body weight of mice ([11]; oral daily)
Cc1nc(NC(=O)c2ccc(Cl)c(C(F)(F)F)c2)sc1-c1ccc2c(/C=C/c3ccccn3)n[nH]c2c1 [Compound 2, (E)-4-chloro-N-(4-methyl-5-(3-(2-(pyridin-2-yl)vinyl)-1H-indazol-6-yl)thiazol-2-yl)-3-(trifluoromethyl)benzamide]	13	2	84	40	> 10000	135	4									
Cc1nc(NC(=O)Cc2cccc(C(F)(F)F)c2)sc1-c1ccc2c(/C=C/c3ccccn3)n[nH]c2c1 [Compound 3, (E)-N-(4-methyl-5-(3-(2-(pyridin-2-yl)vinyl)-1H-indazol-6-yl)thiazol-2-yl)-2-(3-(trifluoromethyl)phenyl)acetamide]	12	2	28	13	2310	35	0.1									
Cc1nc(NC(=O)c2ccncc2)sc1-c1ccc2c(/C=C/c3ccccn3)n[nH]c2c1 [Compound 4, (E)-N-(4-methyl-5-(3-(2-(pyridin-2-yl)vinyl)-1H-indazol-6-yl)thiazol-2-yl) isonicotinamide]	1	2	6	7	> 10000	1550	4									
CC(=O)Nc1ncc(-c2ccc3c(/C=C/c4ccccn4)n[nH]c3c2)s1 [Compound 5, (E)-N-(5-(3-(2-(pyridin-2-yl)vinyl)-1H-indazol-6-yl)thiazol-2-yl)acetamide]	11	2	9	38	2920	425	< 1									
Cc1nc(NC(=O)c2cccc(C(F)(F)F)c2)sc1-c1ccc2c(/C=C/c3ccccn3)n[nH]c2c1 [Compound 6, (E)-N-(4-methyl-5-(3-(2-(pyridin-2-yl)vinyl)-1H-indazol-6-yl)thiazol-2-yl)-3-(trifluoromethyl)benzamide]	3	1	12	5	> 10000	24	2									
Cc1nc(NC(=O)Cc2cccc3ccccc23)sc1-c1ccc2c(/C=C/c3ccccn3)n[nH]c2c1 [Compound 7, (E)-N-(4-methyl-5-(3-(2-(pyridin-2-yl)vinyl)-1H-indazol-6-yl)thiazol-2-yl)-2-(naphthalene-1-yl)acetamide]		2.9	94	15	3690	191	3	32	65							
Cc1nc(NC(=O)CN2CCN(C)CC2)sc1-c1ccc2c(/C=C/c3ccccn3)n[nH]c2c1 [Compound 9, (E)-N-(4-methyl-5-(3-(2-(pyridin-2-yl)vinyl)-1H-indazol-6-yl)thiazol-2-yl)-2-(4-methylpiperazin-1-yl)acetamide]				180	1400	923	1	19	39	≤ 80	100	no effect	9	84.3	≤ 80	no effect
Cc1nc(NC(=O)CC2CCNCC2)sc1-c1ccc2c(/C=C/c3ccccn3)n[nH]c2c1 [Compound 11, (E)-N-(4-methyl-5-(3-(2-(pyridin-2-yl)vinyl)-1H-indazol-6-yl)thiazol-2-yl)-2-(piperidin-4-yl)acetamide]	3.9	1.3	38	350	980	480	48									
Cc1nc(NC(=O)C2CCNCC2)sc1-c1ccc2c(/C=C/c3ccccn3)n[nH]c2c1 [Compound 14, (E)-N-(4-methyl-5-(3-(2-(pyridin-2-yl)vinyl)-1H-indazol-6-yl)thiazol-2-yl) piperidin-4-carboxamide]	18	7.4	85	42	3100	137	1.6									
Cc1nc(NC(=O)Nc2cccc(C(F)(F)F)c2)sc1-c1ccc2c(/C=C/c3ccccn3)n[nH]c2c1 [Compound 29, (E)-1-(4-methyl-5-(3-(2-(pyridin-2-yl)vinyl)-1H-indazol-6-yl)thiazol-2-yl)-3-(3-(trifluoromethyl)phenyl)urea]	< 1	< 1	38	4	105	25	2									
CC(=O)Nc1nc(C)c(-c2ccc3c(/C=C/c4ccccn4)n[nH]c3c2)s1 [Compound 30, (E)-N-(4-methyl-5-(3-(2-(pyridin-2-yl)vinyl)-1H-indazol-6-yl)thiazol-2-yl) acetamide]	1	1	8	12	1460	47	0.3									
Cc1ccc(NC(=O)c2ccc(CN3CCN(C)CC3)cc2)cc1Nc1nccc(-c2cccnc2)n1 [Imaitnib, Imatinib, reference compound]								10	> 10000							

Reference: patent US12162876B2, “Indazole kinase inhibitor and use thereof” (Tarapeutics Science Inc., priority 2018, dated 2024)
